# Source: ChEMBL document CHEMBL5614434, “A Lysosome-Targeting hNEU1 Inhibitor Treats Myocardial Infarction: A Potential Therapeutic Breakthrough” (J Med Chem, 2024)
# Experiments:
# H9c2 = test: Cytotoxicity against rat H9c2 cells assessed as cell viability at 0.001 to 50 uM under normoxia condition by CCK-8 method; format: toxicity, cell-based; conditions: h9c2, 50 µM, dose 0.001-50 µM
# [1] = Drug localization in Mitochondria of rat H9c2 cells by confocal microscopy based analysis; format: ADME
# [2] = Drug localization in lysosome of rat H9c2 cells by confocal microscopy based analysis; format: ADME, subcellular
Drug uptake [1],Drug uptake [2],Structure (SMILES),Activity (H9c2)
–,–,CCC(CC)O[C@@H]1C=C(C(=O)OCCN2CCNCC2)C[C@H](N)[C@H]1NC(C)=O,Non-Toxic
Active,Active,CCC(CC)O[C@@H]1C=C(C(=O)OCCN2CCOCC2)C[C@H](NC(=S)Nc2ccc3c(c2)C(=O)OC32c3ccc(O)cc3Oc3cc(O)ccc32)[C@H]1NC(C)=O,–
–,–,CCC(CC)O[C@@H]1C=C(C(=O)OCCN(C)C)C[C@H](N)[C@H]1NC(C)=O,Non-Toxic
–,–,CCC(CC)O[C@@H]1C=C(C(=O)OCCc2ccncc2)C[C@H](N)[C@H]1NC(C)=O,Non-Toxic
